pIC50: −log10 of the molar value. Activity calls are given as the source filed them. The rule behind the calls is not given here.
These compounds were tested against Dual specificity protein phosphatase 1 (Homo sapiens) (UniProt P28562) (assay: MKP-1 phosphatase inhibitors, repeat potency, dose response, biochemical, reproducibility testing, probe assessment (AID 563)). Details: recombinant MKP-1 phosphatase, fluorescence intensity.
Chain of Dual specificity protein phosphatase 1 (Homo sapiens) (P28562 whole entry, looked up): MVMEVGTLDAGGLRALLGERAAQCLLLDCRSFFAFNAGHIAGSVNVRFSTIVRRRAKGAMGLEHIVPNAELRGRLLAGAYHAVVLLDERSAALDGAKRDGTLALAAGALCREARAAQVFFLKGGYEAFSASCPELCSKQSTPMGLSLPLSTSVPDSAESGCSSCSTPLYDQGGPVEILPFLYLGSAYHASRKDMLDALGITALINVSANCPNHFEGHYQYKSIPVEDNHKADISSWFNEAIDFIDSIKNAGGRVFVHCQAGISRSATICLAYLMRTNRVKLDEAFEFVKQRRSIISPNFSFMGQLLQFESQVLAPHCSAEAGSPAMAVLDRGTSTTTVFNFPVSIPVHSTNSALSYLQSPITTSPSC

Q: How did the pIC50 turn out when `CCOC(=O)c1ccc2c(c1)C1C=CCC1C(C(=O)O)N2` (stereo not drawn) was run?
A: Its pIC50 is 4.48.

Q: How did the pIC50 turn out when `CCCCCNC(=O)c1ccc2c(=O)[nH]c3c(C(=O)NCC4CCCO4)sc(=S)n3c2c1` (stereo not drawn) was run?
A: Its pIC50 is 4.43.

Q: How did the pIC50 turn out when `Cc1cccc(N2CCN(C(=O)Cc3c(C(=O)O)[nH]c4ccc(Cl)cc34)CC2)c1C` was run?
A: Its pIC50 is 4.33.

Q: How did the pIC50 turn out when `Cc1nc2c(C(=O)NCCC3=CCCCC3)c[nH]n2c(=O)c1Cl` was run?
A: Its pIC50 is 4.30.

Q: With `CC(C)Sc1nc2sc3c(c2c2nnc(SCC(=O)NCc4ccco4)n12)CCCC3` as the compound, how does the pIC50 read?
A: The pIC50 was 4.64.

Q: `Cc1ccc(C)n1-c1cccc(C(=O)O)c1` was tested. Which pIC50 did it give?
A: Its pIC50 is 4.77.

Q: With `Cc1ccc(-c2csc(NC(=O)c3ccno3)n2)cc1` as the compound, how does the pIC50 read?
A: The pIC50 was 4.30.

Q: How did the IC50 turn out when `O=C1C(C2=C(O)c3ccccc3C2=O)=Nc2ccccc21` was run?
A: The IC50 was > 50 µM (inactive).

— PubChem BioAssay AID563 (University of Pittsburgh Molecular Library Screening Center, 2006)
